Values quoted from earlier work as cited in patent US20030175234A1, “Use of polyphenols to treat skin conditions” (priority 2002, published 2003).
Where two headings read alike, the source gives them in different places.

Tests used:
[1] = system: Ultraviolet-B (UV-B) light ray induced leukocyte infiltration; settings: mouse skin
[2] = system: Ultraviolet-B (UV-B) light ray induced leukocyte infiltration; settings: human skin

## O=C(O[C@@H]1Cc2c(O)cc(O)cc2O[C@@H]1c1cc(O)c(O)c(O)c1)c1cc(O)c(O)c(O)c1 [epigallocatechin gallate]
[1]
  block of UV-B induced leukocyte infiltration: can block
[2]
  block of UV-B induced leukocyte infiltration: can block
